The text below walks through data of BindingDB's records for patent US20250215012 (University of Michigan, 2025).

This experiment addresses DNA damage-binding protein 1/Protein cereblon (Homo sapiens, UniProt Q96SW2). As to the kind of experiment: Not found.
Description: Not found

SMILES strings stand for the structures.

Chain of DNA damage-binding protein 1/Protein cereblon (Q16531 whole entry): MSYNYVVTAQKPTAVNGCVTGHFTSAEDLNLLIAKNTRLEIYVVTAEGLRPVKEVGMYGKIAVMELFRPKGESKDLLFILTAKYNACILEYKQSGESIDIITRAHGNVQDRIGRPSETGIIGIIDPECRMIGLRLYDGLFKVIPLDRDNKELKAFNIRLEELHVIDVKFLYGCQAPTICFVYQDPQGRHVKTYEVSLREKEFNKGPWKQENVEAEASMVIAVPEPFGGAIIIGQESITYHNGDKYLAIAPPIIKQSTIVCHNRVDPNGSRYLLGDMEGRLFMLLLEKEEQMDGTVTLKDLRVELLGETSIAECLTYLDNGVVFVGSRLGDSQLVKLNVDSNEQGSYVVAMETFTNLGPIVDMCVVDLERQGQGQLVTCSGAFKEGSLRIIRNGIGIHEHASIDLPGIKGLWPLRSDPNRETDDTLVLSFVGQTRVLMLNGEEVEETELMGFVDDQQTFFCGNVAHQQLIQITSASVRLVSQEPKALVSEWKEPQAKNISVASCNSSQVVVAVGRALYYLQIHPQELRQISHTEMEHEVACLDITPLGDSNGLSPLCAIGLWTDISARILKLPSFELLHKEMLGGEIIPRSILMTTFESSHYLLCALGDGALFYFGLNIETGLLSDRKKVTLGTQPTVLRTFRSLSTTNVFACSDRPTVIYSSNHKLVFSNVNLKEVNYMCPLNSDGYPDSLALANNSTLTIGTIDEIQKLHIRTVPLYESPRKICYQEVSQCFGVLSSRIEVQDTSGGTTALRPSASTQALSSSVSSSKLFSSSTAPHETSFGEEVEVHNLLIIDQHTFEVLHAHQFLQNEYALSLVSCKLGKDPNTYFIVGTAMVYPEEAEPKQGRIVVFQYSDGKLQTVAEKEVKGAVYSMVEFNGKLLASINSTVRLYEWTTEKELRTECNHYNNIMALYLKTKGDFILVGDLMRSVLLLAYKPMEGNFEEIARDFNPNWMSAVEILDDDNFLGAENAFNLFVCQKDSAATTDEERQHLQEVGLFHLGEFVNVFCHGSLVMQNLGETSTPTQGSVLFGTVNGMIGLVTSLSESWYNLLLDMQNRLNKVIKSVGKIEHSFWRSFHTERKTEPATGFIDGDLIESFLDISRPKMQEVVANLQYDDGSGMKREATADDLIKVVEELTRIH
Chain of DNA damage-binding protein 1/Protein cereblon (Q96SW2 whole entry): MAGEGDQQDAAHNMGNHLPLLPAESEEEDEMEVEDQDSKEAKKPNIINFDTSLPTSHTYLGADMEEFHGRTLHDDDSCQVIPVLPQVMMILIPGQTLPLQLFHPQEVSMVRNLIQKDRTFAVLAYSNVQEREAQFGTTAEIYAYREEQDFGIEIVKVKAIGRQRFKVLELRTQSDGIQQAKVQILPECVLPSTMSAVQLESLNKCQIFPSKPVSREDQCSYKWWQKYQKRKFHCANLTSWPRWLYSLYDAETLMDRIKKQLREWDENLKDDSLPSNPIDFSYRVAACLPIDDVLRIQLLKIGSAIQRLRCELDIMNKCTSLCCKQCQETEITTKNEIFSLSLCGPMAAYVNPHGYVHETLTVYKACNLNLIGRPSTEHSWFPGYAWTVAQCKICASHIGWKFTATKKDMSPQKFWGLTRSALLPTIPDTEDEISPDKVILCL

For the compound `Cn1ncc2ccc(CN3CCC4(COc5c4ccc4c5CN([C@H]5CCC(=O)NC5=O)C4=O)C(F)(F)C3)cc21` (some centres not stated) [US20250215012, Example B34], the IC50 was in the range of 100 to 500 nM. To `O=C1CC[C@H](N2Cc3c(ccc4c3OCC43CCN(Cc4ccc5cn[nH]c5c4)CC3(F)F)C2=O)C(=O)N1` (some centres not stated) [US20250215012, Example B33] belongs 100 to 500 nM.

Broadly, the IC50 is the point on the concentration scale where inhibition reaches its midpoint. Low values mean greater potency, high ones weaker potency.
